Assay results: PubChem BioAssay (NCI)
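These data come from cells grown in 96-well plates and exposed to compound for 48 hours at five concentrations. At the TGI there is no net growth.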

How the values were obtained:
Assay in all cases: DTP human tumour cell line panel, 48 h
786-0 renal = system: 786-0 renal
A498 renal = system: A498 renal
A549 NSCLC = system: A549 NSCLC
ACHN renal = system: ACHN renal
BT-549 breast = system: BT-549 breast
CAKI-1 renal = system: CAKI-1 renal
CCRF-CEM leukemia = system: CCRF-CEM leukemia
COLO 205 colon = system: COLO 205 colon
DU-145 prostate = system: DU-145 prostate
EKVX NSCLC = system: EKVX NSCLC
HCC-2998 colon = system: HCC-2998 colon
HCT-116 colon = system: HCT-116 colon
HCT-15 colon = system: HCT-15 colon
HL-60(TB) leukemia = system: HL-60(TB) leukemia
HOP-62 NSCLC = system: HOP-62 NSCLC
HOP-92 NSCLC = system: HOP-92 NSCLC
HS 578T breast = system: HS 578T breast
HT29 colon = system: HT29 colon
IGROV1 ovarian = system: IGROV1 ovarian
K-562 leukemia = system: K-562 leukemia
KM12 colon = system: KM12 colon
LOX IMVI melanoma = system: LOX IMVI melanoma
M14 melanoma = system: M14 melanoma
MALME-3M melanoma = system: MALME-3M melanoma
MCF7 breast = system: MCF7 breast
MDA-MB-231 breast = system: MDA-MB-231 breast
MDA-MB-435 = system: MDA-MB-435
MOLT-4 leukemia = system: MOLT-4 leukemia
NCI-H226 lung = system: NCI-H226 lung
NCI-H23 lung = system: NCI-H23 lung
NCI-H460 lung = system: NCI-H460 lung
NCI-H522 lung = system: NCI-H522 lung
NCI/ADR-RES ovarian = system: NCI/ADR-RES ovarian
OVCAR-3 ovarian = system: OVCAR-3 ovarian
OVCAR-4 ovarian = system: OVCAR-4 ovarian
OVCAR-5 ovarian = system: OVCAR-5 ovarian
OVCAR-8 ovarian = system: OVCAR-8 ovarian
PC-3 prostate = system: PC-3 prostate
RPMI-8226 leukemia = system: RPMI-8226 leukemia
RXF 393 renal = system: RXF 393 renal
SF-268 CNS = system: SF-268 CNS
SF-295 CNS = system: SF-295 CNS
SF-539 CNS = system: SF-539 CNS
SK-MEL-2 melanoma = system: SK-MEL-2 melanoma
SK-MEL-28 melanoma = system: SK-MEL-28 melanoma
SK-MEL-5 melanoma = system: SK-MEL-5 melanoma
SK-OV-3 ovarian = system: SK-OV-3 ovarian
SN12C renal = system: SN12C renal
SNB-19 CNS = system: SNB-19 CNS
SNB-75 CNS = system: SNB-75 CNS
SR leukemia = system: SR leukemia
SW-620 colon = system: SW-620 colon
T-47D breast = system: T-47D breast
TK-10 renal = system: TK-10 renal
U251 CNS = system: U251 CNS
UACC-257 melanoma = system: UACC-257 melanoma
UACC-62 melanoma = system: UACC-62 melanoma
UO-31 renal = system: UO-31 renal

Measured: TGI

C=C(C)C(=O)O[C@H]1CC2(CO)O[C@@H]2CC/C(COC(C)=O)=C/C2OC(=O)C(=C)[C@@H]21 (some centres not stated)
> 79.2 µM: T-47D breast
49.1 µM: M14 melanoma
59.4 µM: UO-31 renal
> 60 µM: LOX IMVI melanoma
39.3 µM: CCRF-CEM leukemia
29.8 µM: MOLT-4 leukemia
> 64.6 µM: SK-MEL-28 melanoma
43.3 µM: SR leukemia
62.2 µM: MALME-3M melanoma
26.4 µM: RXF 393 renal
> 61.3 µM: MDA-MB-435
39.4 µM: HCT-116 colon
49.8 µM: OVCAR-8 ovarian
31.3 µM: RPMI-8226 leukemia
48.4 µM: COLO 205 colon
43.1 µM: UACC-257 melanoma
79.6 µM: OVCAR-3 ovarian
51.9 µM: HOP-92 NSCLC
31.6 µM: NCI-H522 lung
> 63.6 µM: ACHN renal
> 96.7 µM: HCT-15 colon
> 56.6 µM: TK-10 renal
54.7 µM: SW-620 colon
74 µM: K-562 leukemia
> 91.6 µM: HCC-2998 colon
29.6 µM: HL-60(TB) leukemia
57.7 µM: MCF7 breast
> 58.8 µM: CAKI-1 renal
> 31.6 µM: 786-0 renal
52.1 µM: BT-549 breast
> 100 µM: all other assays above

Nc1ccc2c(SCCSc3c4ccccc4nc4cc(N)ccc34)c3ccccc3nc2c1
39.3 µM: MOLT-4 leukemia
not listed: A498 renal | HCC-2998 colon | HL-60(TB) leukemia | RXF 393 renal
> 100 µM: all other assays above
